Laboratory results from patent publication US10730889B2, “Amido spirocyclic amide and sulfonamide derivatives” (Forma TM, LLC, priority 2012, dated 2020).

tested on: A2780 cells; assay: In-vitro cell proliferation assay (SRB, 72 hours); type: cell-based; conditions: Homo sapiens, A2780, 72 h, A2780 cells, 72 hours, SRB; read-out: Cell Proliferation (IC50)

SMILES	IC50 [nM]
CC(C)Cc1cc(C(=O)N2CCC3(CC2)CC3CNC(=O)c2cc3ccncc3o2)[nH]n1 (centres unmarked) [Example 319, N-[[6-(3-isobutyl-1H-pyrazole-5-carbonyl)-6-azaspiro[2.5]octan-2-yl]methyl]furo[2,3-c]pyridine-2-carboxamide]	55
O=C(NCC1CC12CCN(C(=O)c1cn3cccnc3n1)CC2)c1cc2ccncc2o1 (centres unmarked) [Example 320, N-[[6-(imidazo[1,2-a]pyrimidine-2-carbonyl)-6-azaspiro[2.5]octan-2-yl]methyl]furo[2,3-c]pyridine-2-carboxamide]	549
O=C(NCC1CC12CCN(C(=O)c1cnn3cccnc13)CC2)c1cc2ccncc2o1 (centres unmarked) [Example 321, N-[[6-(pyrazolo[1,5-a]pyrimidine-3-carbonyl)-6-azaspiro[2.5]oclan-2-yl]methyl]furo[2,3-c]pyridine-2-carboxamide]	2000
CC(C)(C)c1cc(C(=O)N2CCC3(CC2)CC3CNC(=O)c2cc3ccncc3o2)[nH]n1 (centres unmarked) [Example 322, N-[[6-(3-tert-butyl-1H-pyrazole-5-carbonyl)-6-azaspiro[2.5]octan-2-yl]methyl]furo[2,3-c]pyridine-2-carboxamide]	15.1
CC(C)c1cc(C(=O)N2CCC3(CC2)CC3CNC(=O)c2cc3ccncc3o2)n[nH]1 (centres unmarked) [Example 323, N-[[6-(5-isopropyl-1H-pyrazole-3-carbonyl)-6-azaspiro[2.5]octan-2-yl]methyl]furo[2,3-c]pyridine-2-carboxamide]	2000
CC(C)c1n[nH]cc1C(=O)N1CCC2(CC1)CC2CNC(=O)c1cc2ccncc2o1 (centres unmarked) [Example 324, N-[[6-(3-isopropyl-1H-pyrazole-4-carbonyl)-6-azaspiro[2.5]octan-2-yl]methyl]furo[2,3-c]pyridine-2-carboxamide]	109
CC(C)n1nccc1C(=O)N1CCC2(CC1)CC2CNC(=O)c1cc2ccncc2o1 (centres unmarked) [Example 325, N-[[6-(2-isopropylpyrazole-3-carbonyl)-6-azaspiro[2.5]octan-2-yl]methy]furo[2,3-c]pyridine-2-carboxamide]	24.7
CCc1cc(C(=O)N2CCC3(CC2)CC3CNC(=O)c2cc3ccncc3o2)n(C)n1 (centres unmarked) [Example 326, N-[[6-(5-ethyl-2-methyl-pyrazole-3-carbonyl)-6-azaspiro[2.5]octan-2-yl]methyl]furo[2,3-c]pyridine-2-carboxamide]	10.9
O=C(NCC1CC12CCN(C(=O)c1cc(C3CC3)on1)CC2)c1cc2ccncc2o1 (centres unmarked) [Example 327, N-[[6-(5-cyclopropylisoxazole-3-carbonyl)-6-azaspiro[2.5]octan-2-yl]methyl]furo[2,3-c]pyridine-2-carboxamide]	77.6
O=C(NCC1CC12CCN(C(=O)c1cnoc1C1CC1)CC2)c1cc2ccncc2o1 (centres unmarked) [Example 328, N-[[6-(5-cyclopropylisoxazole-4-carbonyl)-6-azaspiro[2.5]octan-2-yl]methyl]furo[2,3-c]pyridine-2-carboxamide]	83.4
Cc1n[nH]c(C)c1C(=O)N1CCC2(CC1)CC2CNC(=O)c1cc2ccncc2o1 (centres unmarked) [Example 329, N-[[6-(3,5-dimethyl-1H-pyrazole-4-carbonyl)-6-azaspiro[2.5]octan-2-yl]methyl]furo[2,3-c]pyridine-2-carboxamide]	55.1
Cc1c(C(=O)N2CCC3(CC2)CC3CNC(=O)c2cc3ccncc3o2)cnn1C (centres unmarked) [Example 330, N-[[6-(1,5-dmiethylpyrazole-4-carbonyl)-6-azaspiro[2.5]octan-2-yl]methyl]furo[2,3-c]pyridine-2-carboxamide]	159
Cc1ncoc1C(=O)N1CCC2(CC1)CC2CNC(=O)c1cc2ccncc2o1 (centres unmarked) [Example 331, N-[[6-(4-methyloxazole-5-carbonyl)-6-azaspiro[2.5]octan-2-yl]methyl]furo[2,3-c]pyridine-2-carboxamide]	7.04
O=C(NCC1CC12CCN(C(=O)c1c[nH]nc1C1CC1)CC2)c1cc2ccncc2o1 (centres unmarked) [Example 332, N-[[6-(3-cyclopropyl-1H-pyrazole-4-carbonyl)-6-azaspiro[2.5]oetan-2-yl]methyl]furo[2,3-c]pyridine-2-carboxamide]	33.8
